Like-named read-outs stand apart in the source and are kept apart here.
How the values were obtained:
V106A-Y181C-RTV = test: Phenotypic susceptibility assay, V106A-Y181C-RTV; format: cell-based, HIV-1; settings: site directed mutant
Source text: (§1) The resistance test vectors containing a functional luciferase gene cassette were constructed and host cells were transfected with the resistance test vector DNA. The resistant test vectors contained patient-derived reverse transcriptase and protease sequences that were either susceptible or resistant to the antiretroviral agents, such as nucleoside reverse transcriptase inhibitors, non-nucleoside reverse transcriptase inhibitors and protease inhibitors. The resistance test vector viral particles produced by transfecting the resistance test vector DNA into host cells, either in the presence or absence of protease inhibitors, were used to infect target host cells grown either in the absence of NRTI or NNRTI or in the presence of increasing concentrations of the drug. The amount of luciferase activity produced in infected target host cells in the presence of drug was compared to the amount of luciferase produced in infected target host cells in the absence of drug. Drug resistance was measured as the amount of drug required to inhibit by 50% the luciferase activity detected in the absence of drug (inhibitory concentration 50%, IC50). The IC50 values were determined by plotting percent drug inhibition vs. log10 drug concentration.
(§2) Host cells were seeded in 10-cm-diameter dishes and were transfected several days after plating with resistance test vector plasmid DNA and the envelope expression vector. Transfections were performed using a calcium-phosphate precipitation procedure. The cell culture media containing the DNA precipitate was replaced with fresh medium, from one to 24 hours, after transfection. Cell culture media containing resistance test vector viral particles was harvested one to four days after transfection and was passed through a […] filter before being stored at −80° C. HIV capsid protein (p24) levels in the harvested cell culture media were determined by an EIA method as described by the manufacturer (SIAC; Frederick, Md.). […] The inhibitory effect of the drug was determined using the following equation: […]

[1] = tested on: K101E-RTV (HIV reverse transcriptase K101E); test: Phenotypic susceptibility assay, K101E-RTV; format: cell-based, HIV-1
Source text: as §1
as §2, with “Md.). Before infection, target cells (293 and 293/T) were plated in cell culture media. Control infections were performed using cell culture media from mock transfections (no DNA) or transfections containing the resistance test vector plasmid DNA without the envelope expression plasmid. One to three or more days after infection the media was removed and cell lysis buffer (Promega) was added to each well.” for “Md.).”
(§3) where RLUluc [drug] is the relative light unit of luciferase activity in infected cells in the presence of drug and RLUluc is the Relative Light Unit of luciferase activity in infected cells in the absence of drug. IC50 values were obtained from the sigmoidal curves that were generated from the data by plotting the percent inhibition of luciferase activity vs. the log10 drug concentration.
The K101E and G190S mutations were introduced alone and in combination into resistance test vectors using the mega-primer method for site-directed mutagenesis (Sakar and Sommar, Ibid.). Resistance test vectors containing the K101E mutation (K101E-RTV), the G190S mutation (G190S-RTV) were then tested using the phenotypic assay described earlier and the results were compared to those determined using a genetically defined resistance test vector that was wild type at positions 101 and 190. […]

[2] = tested on: G190S-RTV (HIV reverse transcriptase G190S); test: Phenotypic susceptibility assay, G190S-RTV; format: cell-based, HIV-1; settings: for change in susceptibility compared to wild type reference RTV: Example 5; for fold change in susceptibility compared to wild type control RTV: values <1 = increased susceptibility
Source text: as §1
as §2, with “Md.). Before infection, target cells (293 and 293/T) were plated in cell culture media. Control infections were performed using cell culture media from mock transfections (no DNA) or transfections containing the resistance test vector plasmid DNA without the envelope expression plasmid. One to three or more days after infection the media was removed and cell lysis buffer (Promega) was added to each well.” for “Md.).”
as §3

[3] = tested on: RTV-B clone 1 (patient sample B); test: Phenotypic susceptibility assay, RTV-B clone 1; format: cell-based, HIV-1; settings: values <1 = increased susceptibility
Source text: as §1, §2

[4] = tested on: T66I integrase site-directed mutant resistance test vector; test: Phenotypic susceptibility assay, T66I integrase mutant vector; format: cell-based, HIV; settings: {}
Experimental: Transfections were performed using a calcium-phosphate precipitation procedure. […] Cell lysates were assayed for luciferase activity (FIG. 3).
The drug inhibition curves are shown in (FIG. 3).
A resistance test vector containing the threonine to isoleucine mutation at position 66 of the integrase protein (T66I) was constructed and tested using the phenotypic assay described earlier.

E138A-Y188L-RTV = test: Phenotypic susceptibility assay, E138A-Y188L-RTV; format: cell-based, HIV-1; settings: site directed mutant
Source text: as §1, with “Drug resistance was measured as the amount of drug required to inhibit by 50% the luciferase activity detected in the absence of drug (inhibitory concentration 50%, IC50).” left out
(§4) Host cells were seeded in 10-cm-diameter dishes and were transfected several days after plating with resistance test vector plasmid DNA and the envelope expression vector. […] HIV capsid protein (p24) levels in the harvested cell culture media were determined by an EIA method as described by the manufacturer (SIAC; Frederick, Md.). […] The inhibitory effect of the drug was determined using the following equation: […]
(§5) The E138A mutation alone and in combination with Y188L was introduced into resistance test vectors using the megaprimer method for site-directed mutagenesis (Sakar and Sommar, Ibid.). Resistance test vectors containing the E138A mutation (E138A-RTV) or the E138 mutation along with the […] mutation (E138A-Y188L-RTV) were then tested using the phenotypic assay described earlier and the results were compared to those determined using a genetically defined resistance test vector that was wild type at positions 188 and 138.

K101E-G190S-RTV = test: Phenotypic susceptibility assay, K101E-G190S-RTV; format: cell-based, HIV-1
Source text: as §1
as §2, with “Md.). Before infection, target cells (293 and 293/T) were plated in cell culture media. Control infections were performed using cell culture media from mock transfections (no DNA) or transfections containing the resistance test vector plasmid DNA without the envelope expression plasmid. One to three or more days after infection the media was removed and cell lysis buffer (Promega) was added to each well.” for “Md.).”
as §3
The K101E and G190S mutations were introduced alone and in combination into resistance test vectors using the mega-primer method for site-directed mutagenesis (Sakar and Sommar, Ibid.). Resistance test vectors containing the K101E mutation (K101E-RTV), the G190S mutation (G190S-RTV) were then tested using the phenotypic assay described earlier and the results were compared to those determined using a genetically defined resistance test vector that was wild type at positions 101 and 190.

V106A-V189L-RTV = test: Phenotypic susceptibility assay, V106A-V189L-RTV; format: cell-based, HIV-1; settings: site directed mutant
Source text: as §1, §2

[5] = tested on: E138A-RTV (HIV reverse transcriptase E138A); test: Phenotypic susceptibility assay, E138A-RTV; format: cell-based, HIV-1; settings: site directed mutant
Source text: as §1, with “Drug resistance was measured as the amount of drug required to inhibit by 50% the luciferase activity detected in the absence of drug (inhibitory concentration 50%, IC50).” left out
as §4, §5

[6] = tested on: V189L-RTV (HIV reverse transcriptase V189L); test: Phenotypic susceptibility assay, V189L-RTV; format: cell-based, HIV-1; settings: V189-RTV (V189L), site directed mutant
Source text: as §1, §2

[7] = values <1 = increased susceptibility
[8] = printed in the K101E-RTV sentence of b302, second set of values

CC(C)Nc1cccnc1N1CCN(C(=O)c2cc3cc(NS(C)(=O)=O)ccc3[nH]2)CC1 [delavirdine]
fold loss of susceptibility compared to wild type control RTV (V106A-Y181C-RTV): 100 fold | fold loss of susceptibility compared to wild type control RTV ([1]; {}): 5 fold | change in susceptibility compared to wild type reference RTV [2]: slightly more susceptible to delavirdine | fold change in susceptibility compared to wild type control RTV [2]: 0.5 fold | fold change in susceptibility (IC50) [3]: 0.55 fold | increase in susceptibility compared to wild type control RTV [4]: 8-10 fold | fold loss of susceptibility compared to wild type control RTV (E138A-Y188L-RTV): 75 fold | fold change in susceptibility compared to wild type control RTV (K101E-G190S-RTV): 1.4 fold | fold change in susceptibility compared to wild type control RTV (K101E-G190S-RTV; [7]): 0.5 fold | fold loss of susceptibility compared to wild type control RTV (V106A-V189L-RTV): 3 fold | fold change in susceptibility compared to wild type control RTV [5]: 1.6 fold | fold change in susceptibility compared to wild type control RTV [6]: 1.8 fold

O=C1Nc2ccc(Cl)cc2[C@@](C#CC2CC2)(C(F)(F)F)O1 [efavirenz]
fold loss of susceptibility compared to wild type control RTV (V106A-Y181C-RTV): 4 fold | fold loss of susceptibility compared to wild type control RTV [1, 8]: 30 fold | fold loss of susceptibility compared to wild type control RTV ([1]; {}): 5 fold | fold change in susceptibility compared to wild type control RTV [2]: 8 fold | fold change in susceptibility (IC50) [3]: 250 fold | increase in susceptibility compared to wild type control RTV [4]: 8-10 fold | fold loss of susceptibility compared to wild type control RTV (E138A-Y188L-RTV): 88 fold | fold change in susceptibility compared to wild type control RTV (K101E-G190S-RTV): greater than 250 fold | fold change in susceptibility compared to wild type control RTV (K101E-G190S-RTV; [7]): 7.6 fold | fold loss of susceptibility compared to wild type control RTV (V106A-V189L-RTV): 1 fold | fold change in susceptibility compared to wild type control RTV [5]: 1.4 fold | fold change in susceptibility compared to wild type control RTV [6]: 1.3 fold

Cc1ccnc2c1NC(=O)c1cccnc1N2C1CC1 [nevirapine]
fold loss of susceptibility compared to wild type control RTV (V106A-Y181C-RTV): greater than 800 fold | fold loss of susceptibility compared to wild type control RTV [1, 8]: 55 fold | fold loss of susceptibility compared to wild type control RTV ([1]; {}): 12 fold | change in susceptibility compared to wild type reference RTV [2]: markedly less susceptible to nevirapine | fold change in susceptibility compared to wild type control RTV [2]: 75 fold | fold change in susceptibility (IC50) [3]: 640 fold | increase in susceptibility compared to wild type control RTV [4]: 8-10 fold | fold loss of susceptibility compared to wild type control RTV (E138A-Y188L-RTV): greater than 800 fold | fold change in susceptibility compared to wild type control RTV (K101E-G190S-RTV): greater than 800 fold | fold change in susceptibility compared to wild type control RTV (K101E-G190S-RTV; [7]): 75 fold | fold loss of susceptibility compared to wild type control RTV (V106A-V189L-RTV): 50 fold | fold change in susceptibility compared to wild type control RTV [5]: 1.3 fold | fold change in susceptibility compared to wild type control RTV [6]: 1.3 fold
